Data set [1] concerns Normal human dermal fibroblasts (NHDF). Nature of the data set: In vitro phototoxicity test (UVA, neutral red). It is filed as cell-based. The note with it: UVA 5.0 J/cm^2, 0.9-125 μmol/l or 3.9-500 μmol/l, neutral red after 24 hours. The protocol:
Phototoxic potential of test compound was determined by modified in vitro test validated phototoxicity evaluation (Spielmann H, Balls M, Dupuis J, Pape W J, Pechovitch G, de Silva O, Holzhater H G, Clothier R, Desolle P, Gerberick F, Liebsch M, Lovell W W, Maurer T, Pfannenbecker U, Potthast J M, Csato M, Sladowski D, Steiling W, Brantom P., Toxicol In Vitro. 1998 Jun. 1; 12(3):305-27). Normal human dermal fibroblasts (NHDF) were used as an in vitro model. Cells were isolated from tissue specimens obtained from healthy patients undergoing plastic surgery at the Department of Plastic and Aesthetic Surgery (University Hospital Olomouc). The use of skin tissue was in accordance with the Ethics Committee of the University Hospital and Faculty of Medicine and Dentistry, Palacký University, Olomouc and all patients signed written informed consent. Fibroblasts were used between the 2nd and 4th passage. […]
Test compound was 6-(3-methoxybenzylamino)-9-β-D-arabinofuranosylpurine. […] Intensity of UVA radiation was evaluated before each irradiation by UVA-meter. […] After 24 hours (37° C., 5% CO2) cell damage was evaluated by neutral red (NR) incorporation into viable cells. […] After 5 minutes of intensive shaking absorbance was measured at 540 nm. […] Phototoxic effect was evaluated as % of viability of control cells that was calculated from experimental data (absorbance) according to the following equation: […]

Data set [2] in a line: Calcein AM cytotoxicity assay, MCF-7. The note with it: human, MCF-7 breast cancer cells. It is filed as cell-based. In outline:
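K562, MCF-7 and NIH3T3 cells (10^4/well) in DMEM with 10% FBS were preincubated for 24 hrs, then given six 4-fold dilutions, usually from 166.7 μM, in duplicate for 72 hrs at 37° C. Viability was read by Calcein AM fluorescence after 1 hour, with GI50 from survival relative to control.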

Usually GI50 stands for the concentration that inhibits growth by half. `COc1cccc(CNc2ncnc3c2ncn3[C@@H]2O[C@H](CO)[C@@H](O)[C@@H]2O)c1` [6-(3-methoxybenzylamino)-9-β-D-arabinofuranosylpurine]: the “phototoxic effect (viability after UVA)” value in data set [1] is “non-phototoxic”. In addition, the concentration for 50% growth inhibition (GI50) at 72 h in data set [2] was more than 100 µM.

Values taken from patent US10100077B2, “6-aryl-9-glycosylpurines and use thereof” (UNIVERZITA PALACKEHO V OLOMOUCI, priority 2014, dated 2018).
